Data as given in ChEMBL document CHEMBL1764959, “Design, synthesis, and structure-activity relationship studies of thiophene-3-carboxamide derivatives as dual inhibitors of the c-Jun N-terminal kinase” (Bioorg Med Chem, 2011).

Tests used:
[1] = biological target: T1, Mitogen-activated protein kinase 8 (Homo sapiens, UniProt P45983); assay: Inhibition of JNK1 by TR-FRET assay
Plasma = assay: Metabolic stability in rat plasma after 60 mins by LC/MS analysis; assay type: ADME, cell-free; settings: 1 h
Liver microsomes = assay: Half life in rat liver microsomes by LC/MS analysis; assay type: ADME, Microsome
[2] = biological target: Mitogen-activated protein kinase kinase kinase 9 (Homo sapiens) (UniProt P80192); assay: Inhibition of MAPK3K9 at 25 uM by TR-FRET assay
[3] = biological target: Sphingosine kinase 1 (Homo sapiens) (UniProt Q9NYA1); assay: Inhibition of SPHK1 at 25 uM by TR-FRET assay
[4] = biological target: Calcium/calmodulin-dependent protein kinase type 1 (Homo sapiens) (UniProt Q14012); assay: Inhibition of CAMK1 at 25 uM by TR-FRET assay
[5] = biological target: Phosphatidylinositol 4,5-bisphosphate 3-kinase catalytic subunit alpha isoform (Homo sapiens) (UniProt P42336); assay: Inhibition of PI3Kalpha at 25 uM by TR-FRET assay
[6] = biological target: Serine/threonine-protein kinase Chk1 (Homo sapiens) (UniProt O14757); assay: Inhibition of CHEK1 at 25 uM by TR-FRET assay
[7] = biological target: T2, Mitogen-activated protein kinase 9 (Homo sapiens, UniProt P45984); assay: Inhibition of JNK2 at 25 uM by TR-FRET assay
[8] = biological target: Cyclin-dependent kinase 1 (Homo sapiens) (UniProt P06493); assay: Inhibition of CDK1 at 25 uM by TR-FRET assay
[9] = biological target: 5'-AMP-activated protein kinase catalytic subunit alpha-1 (Homo sapiens) (UniProt Q13131); assay: Inhibition of AMPK A1 at 25 uM by TR-FRET assay
[10] = biological target: T2, Mitogen-activated protein kinase 9; assay: Binding affinity to JNK2
[11] = biological target: Mitogen-activated protein kinase 3 (Homo sapiens) (UniProt P27361); assay: Inhibition of MAPK3 at 25 uM by TR-FRET assay
[12] = biological target: Aurora kinase A (Homo sapiens) (UniProt O14965); assay: Inhibition of AURK A at 25 uM by TR-FRET assay
[13] = biological target: Mitogen-activated protein kinase 10 (Homo sapiens) (UniProt P53779); assay: Inhibition of JNK3 at 25 uM by TR-FRET assay
[14] = biological target: Serine/threonine-protein kinase B-raf (Homo sapiens) (UniProt P15056); assay: Inhibition of BRAF at 25 uM by TR-FRET assay
[15] = biological target: Dual specificity mitogen-activated protein kinase kinase 1 (Homo sapiens) (UniProt Q02750); assay: Inhibition of MAK2K1 at 25 uM by TR-FRET assay
[16] = biological target: Protein kinase C alpha type (Homo sapiens) (UniProt P17252); assay: Inhibition of PRKCA at 25 uM by TR-FRET assay
[17] = biological target: 3-phosphoinositide-dependent protein kinase 1 (Homo sapiens) (UniProt O15530); assay: Inhibition of PDK1 at 25 uM by direct TR-FRET assay
[18] = biological target: Mitogen-activated protein kinase 14 (Homo sapiens) (UniProt Q16539); assay: Inhibition of MAPK14 at 25 uM by TR-FRET assay
[19] = biological target: T1, Mitogen-activated protein kinase 8; assay: Displacement of biotin-labeled JIP1 peptide from JNK1 by DELFIA assay
[20] = biological target: Serine/threonine-protein kinase mTOR (Homo sapiens) (UniProt P42345); assay: Inhibition of FRAP1 at 25 uM by TR-FRET assay
[21] = biological target: T1, Mitogen-activated protein kinase 8; settings: 25 uM
Description: Inhibition of JNK1 at 25 uM by TR-FRET assay

[22] = biological target: Mitogen-activated protein kinase 14 (Homo sapiens) (UniProt Q16539); assay: Inhibition of MAPK14 at 25 uM by direct TR-FRET assay
[23] = biological target: Rho-associated protein kinase 1 (Homo sapiens) (UniProt Q13464); assay: Inhibition of ROCK1 at 25 uM by TR-FRET assay
[24] = biological target: RAC-alpha serine/threonine-protein kinase (Homo sapiens) (UniProt P31749); assay: Inhibition of AKT1 at 25 uM by TR-FRET assay
[25] = biological target: Mitogen-activated protein kinase kinase kinase kinase 2 (Homo sapiens) (UniProt Q12851); assay: Inhibition of MAP4K2 at 25 uM by TR-FRET assay
[26] = biological target: Serine/threonine-protein kinase Nek1 (Homo sapiens) (UniProt Q96PY6); assay: Inhibition of NEK1 at 25 uM by TR-FRET assay
[27] = biological target: Mitogen-activated protein kinase 1 (Homo sapiens) (UniProt P28482); assay: Inhibition of MAPK1 at 25 uM by TR-FRET assay
[28] = biological target: Glycogen synthase kinase-3 alpha (Homo sapiens) (UniProt P49840); assay: Inhibition of GSK3alpha at 25 uM by TR-FRET assay
[29] = biological target: Serine/threonine-protein kinase pim-1 (Homo sapiens) (UniProt P11309); assay: Inhibition of PIM1 at 25 uM by TR-FRET assay
[30] = biological target: Inhibitor of nuclear factor kappa-B kinase subunit alpha (Homo sapiens) (UniProt O15111); assay: Inhibition of CHUK at 25 uM by TR-FRET assay
Inhibitor of nuclear factor kappa-B kinase subunit alpha (Homo sapiens), sequence (O15111 whole entry): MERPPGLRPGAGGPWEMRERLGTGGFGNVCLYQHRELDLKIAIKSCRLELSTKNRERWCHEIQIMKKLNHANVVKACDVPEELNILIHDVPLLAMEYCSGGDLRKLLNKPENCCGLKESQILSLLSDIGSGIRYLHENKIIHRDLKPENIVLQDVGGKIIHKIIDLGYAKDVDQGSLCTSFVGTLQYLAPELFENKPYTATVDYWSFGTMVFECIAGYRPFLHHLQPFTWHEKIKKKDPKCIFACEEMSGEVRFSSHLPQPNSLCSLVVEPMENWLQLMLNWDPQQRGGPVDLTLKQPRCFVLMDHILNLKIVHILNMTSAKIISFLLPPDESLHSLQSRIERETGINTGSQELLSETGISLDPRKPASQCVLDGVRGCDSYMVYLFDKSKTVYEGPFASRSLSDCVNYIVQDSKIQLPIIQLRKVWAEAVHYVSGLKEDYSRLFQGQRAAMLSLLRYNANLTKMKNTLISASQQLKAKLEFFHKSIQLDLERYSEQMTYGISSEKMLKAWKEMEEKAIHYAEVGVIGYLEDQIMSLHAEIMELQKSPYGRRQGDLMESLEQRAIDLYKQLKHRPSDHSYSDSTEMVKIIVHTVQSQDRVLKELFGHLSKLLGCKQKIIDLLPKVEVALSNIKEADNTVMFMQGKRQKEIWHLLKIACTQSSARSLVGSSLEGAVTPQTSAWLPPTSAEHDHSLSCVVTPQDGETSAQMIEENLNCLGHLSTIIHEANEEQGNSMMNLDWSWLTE

T1 sequence (P45983 whole entry): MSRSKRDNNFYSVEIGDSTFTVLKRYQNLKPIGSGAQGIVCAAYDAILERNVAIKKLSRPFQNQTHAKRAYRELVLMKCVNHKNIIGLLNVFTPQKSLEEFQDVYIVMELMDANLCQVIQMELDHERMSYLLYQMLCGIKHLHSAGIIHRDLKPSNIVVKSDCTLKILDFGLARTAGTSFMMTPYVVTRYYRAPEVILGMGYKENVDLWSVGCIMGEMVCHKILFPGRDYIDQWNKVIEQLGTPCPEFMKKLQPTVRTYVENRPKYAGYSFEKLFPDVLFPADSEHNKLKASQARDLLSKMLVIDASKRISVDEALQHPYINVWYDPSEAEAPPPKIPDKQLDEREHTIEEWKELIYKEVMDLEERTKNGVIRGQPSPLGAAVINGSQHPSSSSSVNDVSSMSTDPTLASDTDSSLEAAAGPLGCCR
Mitogen-activated protein kinase 14 (Homo sapiens), sequence (Q16539 whole entry): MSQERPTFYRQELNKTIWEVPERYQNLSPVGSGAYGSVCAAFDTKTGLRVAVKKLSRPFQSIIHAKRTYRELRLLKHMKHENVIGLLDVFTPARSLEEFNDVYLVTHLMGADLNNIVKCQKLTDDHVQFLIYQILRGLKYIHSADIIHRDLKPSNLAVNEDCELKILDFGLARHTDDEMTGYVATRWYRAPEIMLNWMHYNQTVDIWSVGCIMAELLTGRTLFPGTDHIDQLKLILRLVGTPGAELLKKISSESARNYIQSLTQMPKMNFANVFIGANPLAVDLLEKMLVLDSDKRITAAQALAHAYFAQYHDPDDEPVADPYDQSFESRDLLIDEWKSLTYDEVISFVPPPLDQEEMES
Mitogen-activated protein kinase kinase kinase 9 (Homo sapiens), sequence (P80192 whole entry, looked up): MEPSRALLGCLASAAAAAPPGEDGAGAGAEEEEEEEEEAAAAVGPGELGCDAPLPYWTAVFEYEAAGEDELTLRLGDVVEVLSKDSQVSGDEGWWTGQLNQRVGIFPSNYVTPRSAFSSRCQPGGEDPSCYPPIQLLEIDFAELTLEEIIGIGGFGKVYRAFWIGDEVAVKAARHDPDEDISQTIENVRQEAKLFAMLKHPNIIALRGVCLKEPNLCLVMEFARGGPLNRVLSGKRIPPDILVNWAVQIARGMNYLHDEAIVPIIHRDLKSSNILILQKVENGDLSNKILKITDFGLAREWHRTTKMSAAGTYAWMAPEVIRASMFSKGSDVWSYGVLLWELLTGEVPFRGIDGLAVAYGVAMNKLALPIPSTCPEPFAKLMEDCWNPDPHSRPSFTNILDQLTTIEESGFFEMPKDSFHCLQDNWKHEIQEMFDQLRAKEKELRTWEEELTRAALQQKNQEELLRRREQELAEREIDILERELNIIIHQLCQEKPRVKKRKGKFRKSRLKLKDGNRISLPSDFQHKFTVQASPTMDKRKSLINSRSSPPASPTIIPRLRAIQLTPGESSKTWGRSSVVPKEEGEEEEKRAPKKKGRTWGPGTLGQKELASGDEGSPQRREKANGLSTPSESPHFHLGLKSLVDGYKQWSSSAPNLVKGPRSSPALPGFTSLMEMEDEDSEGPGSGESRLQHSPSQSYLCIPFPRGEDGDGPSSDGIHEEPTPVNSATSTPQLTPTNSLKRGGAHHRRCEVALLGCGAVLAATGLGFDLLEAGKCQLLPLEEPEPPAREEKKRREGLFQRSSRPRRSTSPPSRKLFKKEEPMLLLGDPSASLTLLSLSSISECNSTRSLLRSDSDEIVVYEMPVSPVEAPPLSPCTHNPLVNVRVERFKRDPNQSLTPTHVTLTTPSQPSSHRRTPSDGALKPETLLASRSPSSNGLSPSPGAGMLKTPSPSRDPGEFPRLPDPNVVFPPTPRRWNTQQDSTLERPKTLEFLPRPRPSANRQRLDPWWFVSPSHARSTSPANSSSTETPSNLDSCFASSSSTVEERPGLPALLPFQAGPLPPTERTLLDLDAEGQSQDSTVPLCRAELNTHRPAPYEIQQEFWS
Serine/threonine-protein kinase pim-1 (Homo sapiens), sequence (P11309 whole entry, looked up): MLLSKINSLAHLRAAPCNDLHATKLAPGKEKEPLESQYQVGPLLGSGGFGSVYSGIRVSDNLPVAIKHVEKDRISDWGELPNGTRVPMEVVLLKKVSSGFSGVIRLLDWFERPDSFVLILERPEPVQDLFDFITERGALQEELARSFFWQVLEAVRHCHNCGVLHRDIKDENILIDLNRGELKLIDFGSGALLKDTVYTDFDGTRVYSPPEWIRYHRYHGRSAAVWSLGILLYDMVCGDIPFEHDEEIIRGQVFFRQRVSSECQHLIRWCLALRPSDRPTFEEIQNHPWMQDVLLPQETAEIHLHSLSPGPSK
Aurora kinase A (Homo sapiens), sequence (O14965 whole entry): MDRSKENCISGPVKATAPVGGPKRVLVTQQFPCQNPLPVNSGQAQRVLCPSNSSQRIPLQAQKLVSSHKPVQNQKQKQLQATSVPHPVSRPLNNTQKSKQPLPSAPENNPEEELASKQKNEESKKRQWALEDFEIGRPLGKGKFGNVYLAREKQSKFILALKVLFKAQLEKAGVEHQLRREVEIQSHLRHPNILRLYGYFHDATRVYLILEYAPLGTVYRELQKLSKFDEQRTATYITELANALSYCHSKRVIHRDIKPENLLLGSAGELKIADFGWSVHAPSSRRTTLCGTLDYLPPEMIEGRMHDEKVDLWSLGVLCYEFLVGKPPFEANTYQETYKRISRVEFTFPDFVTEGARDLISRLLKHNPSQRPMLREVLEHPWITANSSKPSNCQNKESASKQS
Serine/threonine-protein kinase B-raf (Homo sapiens), sequence (P15056 whole entry): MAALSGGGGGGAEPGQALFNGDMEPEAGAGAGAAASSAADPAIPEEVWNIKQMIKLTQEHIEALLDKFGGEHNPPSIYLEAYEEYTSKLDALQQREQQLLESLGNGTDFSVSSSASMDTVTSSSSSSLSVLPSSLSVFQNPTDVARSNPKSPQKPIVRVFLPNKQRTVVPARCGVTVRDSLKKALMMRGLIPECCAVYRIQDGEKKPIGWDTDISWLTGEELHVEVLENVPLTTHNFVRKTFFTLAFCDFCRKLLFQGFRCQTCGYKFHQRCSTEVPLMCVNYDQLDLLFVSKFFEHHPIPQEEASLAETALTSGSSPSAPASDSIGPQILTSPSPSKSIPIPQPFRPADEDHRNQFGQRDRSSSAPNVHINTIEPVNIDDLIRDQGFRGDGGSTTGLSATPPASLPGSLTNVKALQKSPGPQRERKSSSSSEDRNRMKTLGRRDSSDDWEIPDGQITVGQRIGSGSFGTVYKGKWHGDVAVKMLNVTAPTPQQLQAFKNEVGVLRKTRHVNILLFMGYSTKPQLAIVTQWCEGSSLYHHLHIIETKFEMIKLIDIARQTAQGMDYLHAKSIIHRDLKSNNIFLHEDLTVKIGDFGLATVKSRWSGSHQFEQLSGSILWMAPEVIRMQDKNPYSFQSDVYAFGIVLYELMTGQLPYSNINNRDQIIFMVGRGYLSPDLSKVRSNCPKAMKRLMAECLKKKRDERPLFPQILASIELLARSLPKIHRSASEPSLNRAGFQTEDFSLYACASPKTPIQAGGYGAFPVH
Sphingosine kinase 1 (Homo sapiens), sequence (Q9NYA1 whole entry): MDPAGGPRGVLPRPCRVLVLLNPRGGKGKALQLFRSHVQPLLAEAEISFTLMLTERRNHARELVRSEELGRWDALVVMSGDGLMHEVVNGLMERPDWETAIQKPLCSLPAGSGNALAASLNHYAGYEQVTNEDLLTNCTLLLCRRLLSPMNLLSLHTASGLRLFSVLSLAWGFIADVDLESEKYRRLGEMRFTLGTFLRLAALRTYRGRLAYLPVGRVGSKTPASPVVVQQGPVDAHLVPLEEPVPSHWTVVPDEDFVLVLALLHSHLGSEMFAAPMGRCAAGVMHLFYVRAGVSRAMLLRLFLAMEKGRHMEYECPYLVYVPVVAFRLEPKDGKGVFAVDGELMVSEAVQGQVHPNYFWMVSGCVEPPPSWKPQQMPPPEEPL
Serine/threonine-protein kinase Chk1 (Homo sapiens), sequence (O14757 whole entry): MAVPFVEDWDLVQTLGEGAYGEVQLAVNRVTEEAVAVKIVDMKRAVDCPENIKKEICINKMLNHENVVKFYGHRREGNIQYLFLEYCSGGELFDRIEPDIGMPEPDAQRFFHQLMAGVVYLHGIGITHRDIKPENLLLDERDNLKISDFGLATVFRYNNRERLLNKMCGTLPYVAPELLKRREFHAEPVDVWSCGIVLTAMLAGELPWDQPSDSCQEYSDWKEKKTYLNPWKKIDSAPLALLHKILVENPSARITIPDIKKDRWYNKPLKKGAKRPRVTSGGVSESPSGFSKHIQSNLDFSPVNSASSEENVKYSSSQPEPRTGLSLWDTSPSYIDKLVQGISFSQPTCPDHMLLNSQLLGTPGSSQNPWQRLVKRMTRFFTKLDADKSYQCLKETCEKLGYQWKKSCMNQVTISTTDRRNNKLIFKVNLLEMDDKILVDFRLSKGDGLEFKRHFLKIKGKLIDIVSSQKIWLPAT

## Cc1ccccc1CC(=O)Nc1sccc1C(N)=O
[1]
  IC50: 6 µM

## NC(=O)c1ccsc1NC(=O)Cc1ccccc1I
[1]
  IC50: 3.4 µM

## NC(=O)c1ccsc1NC(=O)Cc1ccccc1
[1]
  IC50: 3.6 µM

## NC(=O)c1ccsc1NC(=O)Cc1c(F)cccc1F
[1]
  IC50: 7.4 µM

## COc1ccc(CC(=O)Nc2sccc2C(N)=O)cc1OC
[1]
  IC50: > 25 µM

## NC(=O)c1ccsc1NC(=O)Cc1cccc(Br)c1
Plasma
  Stability: Stable
Liver microsomes
  t1/2: 24 min
[1]
  IC50: 1.8 µM

## CCOc1ccc(CC(=O)Nc2sccc2C(N)=O)cc1
[1]
  IC50: 1.9 µM

## NC(=O)c1ccsc1NC(=O)Cc1ccc2ccccc2c1
[1]
  IC50: > 25 µM

## NC(=O)c1ccsc1NC(=O)CN1CCN(S(=O)(=O)c2ccccc2C(F)(F)F)CC1
[1]
  IC50: 75.1 µM

## NC(=O)c1ccsc1NC(=O)Cc1nc2ccccc2[nH]1
[1]
  IC50: > 25 µM

## NC(=O)c1ccsc1NC(=O)Cc1ccc(-c2ccccc2)cc1
[1]
  IC50: > 50 µM

## COc1ccccc1CC(=O)Nc1sccc1C(N)=O
[1]
  IC50: 11.9 µM

## Cc1sc(NC(=O)Cc2cccc3ccccc23)c(C(N)=O)c1C
[1]
  IC50: 26 µM

## CC(C)c1ccc(CC(=O)Nc2sccc2C(N)=O)cc1
[1]
  IC50: > 25 µM

## NC(=O)c1ccsc1NC(=O)Cc1ccc(Br)cc1
[1]
  IC50: > 25 µM

## Cc1cc(C(N)=O)c(NC(=O)Cc2cccc3ccccc23)s1
[1]
  IC50: > 25 µM

## NC(=O)c1ccsc1NC(=O)Cc1cc(Cl)c2c(c1)OCCCO2
[1]
  IC50: 1.9 µM

## NC(=O)c1ccc(NC(=O)Cc2cccc3ccccc23)s1
[1]
  IC50: > 100 µM

## CC1CN(CC(=O)Nc2sccc2C(N)=O)CC(C)O1 (configuration not stated)
[1]
  IC50: 65.3 µM

## O=C(Cc1cccc2ccccc12)Nc1sccc1C(=O)O
[1]
  IC50: > 100 µM

## COc1ccc2c(CC(=O)Nc3sccc3C(N)=O)c(Br)ccc2c1
[1]
  IC50: > 25 µM

## N#Cc1ccsc1NC(=O)Cc1cccc2ccccc12
[1]
  IC50: > 100 µM

## NC(=O)c1ccsc1NC(=O)Cc1ccc(F)cc1F
[1]
  IC50: 9.7 µM

## NC(=O)c1ccsc1NC(=O)CN1CCN(C(=O)C2CC2)CC1
[1]
  IC50: 83.5 µM

## NC(=O)c1ccccc1NC(=O)Cc1cccc2ccccc12
[1]
  IC50: > 100 µM

## NC(=O)c1ccsc1NC(=O)Cc1ccc(Cl)cc1
[1]
  IC50: 18.7 µM

## COC(=O)c1ccsc1NC(=O)Cc1cccc2ccccc12
[1]
  IC50: > 100 µM

## NC(=O)c1ccsc1NC(=O)c1ccccc1
[1]
  IC50: 5.9 µM

## NC(=O)c1ccsc1NC(=O)Cc1c[nH]c2ccccc12
[1]
  IC50: 9.4 µM

## NC(=O)c1ccsc1NC(=O)Cc1c(F)c(F)c(F)c(F)c1F
[1]
  IC50: > 50 µM

## NC(=O)c1ccsc1NC(=O)Cc1ccc(C(F)(F)F)cc1
[1]
  IC50: 6.4 µM

## NC(=O)c1ccsc1NC(=O)Cc1cc(F)cc(F)c1
[1]
  IC50: 8.2 µM

## NC(=O)c1ccsc1NC(=O)Cc1ccc(OC(F)(F)F)cc1
[1]
  IC50: 5.8 µM

## NC(=O)c1ccsc1NC(=O)Cc1ccccc1Cl
Plasma
  Stability: Stable
Liver microsomes
  t1/2: 27 min
[1]
  IC50: 1.4 µM

## NC(=O)c1ccsc1NC(=O)Cc1ccc([N+](=O)[O-])cc1
[1]
  IC50: 2.9 µM

## Cc1csc(NC(=O)Cc2cccc3ccccc23)c1C(N)=O
[1]
  IC50: > 25 µM

## COc1cc(CC(=O)Nc2sccc2C(N)=O)cc(OC)c1
[1]
  IC50: 3.1 µM

## Cc1cccc(CC(=O)Nc2sccc2C(N)=O)c1
[1]
  IC50: 5.4 µM

## NC(=O)c1ccsc1NC(=O)Cc1ccc2ccc3cccc4ccc1c2c34
[1]
  IC50: > 50 µM

## NC(=O)c1ccsc1NC(=O)Cc1ccc2c(c1)OCO2
[1]
  IC50: 1.8 µM

## NC(=O)c1ccsc1NC(=O)Cc1cccc(F)c1
[1]
  IC50: 9.4 µM

## N#Cc1ccc(CC(=O)Nc2sccc2C(N)=O)cc1
[1]
  IC50: 3.4 µM

## Cc1cc(C)cc(CC(=O)Nc2sccc2C(N)=O)c1
[1]
  IC50: 2.7 µM

## NC(=O)c1ccsc1NC(=O)Cc1csc(-c2ccccc2)n1
[1]
  IC50: > 25 µM

## NC(=O)c1ccsc1NC(=O)Cc1ccc2c(c1)CCC2
[1]
  IC50: 2.5 µM

## N#Cc1cccc(CC(=O)Nc2sccc2C(N)=O)c1
[1]
  IC50: 20.9 µM

## NC(=O)c1ccsc1NC(=O)Cc1ccccc1Br
[1]
  IC50: 2.9 µM

## NC(=O)c1ccsc1NC(=O)Cc1ccccc1F
[1]
  IC50: 8.3 µM

## NC(=O)c1ccsc1NC(=O)/C=C/c1ccccc1
[1]
  IC50: > 100 µM

## NC(=O)c1ccsc1NC(=O)Cc1coc2ccccc12
[1]
  IC50: > 25 µM

## NC(=O)c1ccsc1NC(=O)Cc1ccc(F)cc1
[1]
  IC50: 5.1 µM

## NC(=O)c1ccsc1NC(=O)Cc1cccc([N+](=O)[O-])c1
[1]
  IC50: > 25 µM

## Cc1cnc2sc(CC(=O)Nc3sccc3C(N)=O)cn12
[1]
  IC50: 2.5 µM

## NC(=O)c1ccsc1NC(=O)CN1CCOCC1
[1]
  IC50: > 50 µM

## Cc1ccc(CC(=O)Nc2sccc2C(N)=O)cc1
[1]
  IC50: 4.3 µM

## NC(=O)c1ccsc1NC(=O)CCc1ccccc1
[1]
  IC50: > 100 µM

## NC(=O)c1ccsc1NC(=O)CN1CCN(Cc2ccco2)CC1
[1]
  IC50: 7.6 µM

## CC(C)Cc1ccc(CC(=O)Nc2sccc2C(N)=O)cc1
[1]
  IC50: > 25 µM

## NC(=O)c1ccsc1NC(=O)Cc1cc(F)cc2c1OCOC2
[1]
  IC50: 4.9 µM

## NC(=O)c1ccsc1NC(=O)Cc1ccc(F)c(F)c1
[1]
  IC50: 10.2 µM

## NC(=O)c1ccsc1NC(=O)Cc1cccc(I)c1
[1]
  IC50: 1.8 µM

## COc1ccc(CC(=O)Nc2sccc2C(N)=O)cc1
[1]
  IC50: 5.7 µM

## NC(=O)c1ccsc1NC(=O)Cc1cccc(C(F)(F)F)c1
[1]
  IC50: 7.6 µM

## NC(=O)c1ccsc1NC(=O)Cc1csc2nc(-c3cccs3)cn12
[1]
  IC50: 2.5 µM

## COc1cccc(CC(=O)Nc2sccc2C(N)=O)c1
[1]
  IC50: 2.6 µM

## NC(=O)c1ccsc1NC(=O)Cc1cccc(Cl)c1
[1]
  IC50: 2.6 µM

## COc1ccc2cc(Br)ccc2c1CC(=O)Nc1sccc1C(N)=O
[1]
  IC50: > 25 µM

## NC(=O)c1ccsc1NC(=O)Cc1ccc2c(c1)CCCC2
[1]
  IC50: 3.6 µM

## NC(=O)c1ccsc1NC(=O)Cc1c(F)cccc1Cl
[1]
  IC50: 12.5 µM

## NC(=O)c1ccsc1NC(=O)Cc1nc(-c2cccs2)cs1
[1]
  IC50: > 25 µM

## NC(=O)c1ccsc1NC(=O)Cc1cc(F)ccc1F
[1]
  IC50: 5.8 µM

## NC(=O)c1ccsc1NC(=O)Cc1csc2ccccc12
[2]
  inhibition: 0%
[3]
  inhibition: 1%
[4]
  inhibition: 2%
[5]
  inhibition: 4%
[6]
  inhibition: 0%
[7]
  inhibition: 72%
[8]
  inhibition: 3%
[9]
  inhibition: 0%
[10]
  Kd: 0.64 µM
[11]
  inhibition: 3%
[12]
  inhibition: 0%
[13]
  inhibition: 18%
Plasma
  Stability: Stable
[14]
  inhibition: 2%
[15]
  inhibition: 0%
[16]
  inhibition: 0%
[17]
  inhibition: 0%
[18]
  inhibition: 11%
[19]
  IC50: 4.62 µM
[20]
  inhibition: 0%
[1]
  IC50: 1.3 µM
[21]
  inhibition: 79%
[22]
  inhibition: 2%
[23]
  inhibition: 0%
[24]
  inhibition: 5%
[25]
  inhibition: 1%
[26]
  inhibition: 0%
[27]
  inhibition: 4%
[28]
  inhibition: 16%
[29]
  inhibition: 0%
[30]
  inhibition: 0%

## NC(=O)c1ccsc1NC(=O)Cc1cccnc1
[1]
  IC50: 8.1 µM
